From US20230295110A1, “PHD INHIBITOR COMPOUNDS, COMPOSITIONS, AND METHODS OF USE” (Akebia Therapeutics, Inc., priority 2020, published 2023)
Where two headings read alike, the source gives them in different places.

Tests used:
full-length human PHD2 = full-length human PHD2 (Homo sapiens (Human), UniProt Q9GZT9); experiment: TR-FRET assay for PHD enzymes, PHD2
From the text: Time-resolved fluorescence resonance energy transfer (TR-FRET) assay was utilized to determine the enzymatic half maximal inhibitory concentration (IC50) value of PHD inhibitors against the full-length human prolyl-4-hydroxylase domain (PHD) enzymes, PHD1, PHD2, and PHD3. The TR-FRET assay was developed based on the specific binding of hydroxylated HIF-1α peptide with the complex formed by VHL, EloB and EloC (VBC), to generate a fluorescent signal. Terbium (Tb)-Donor (monoclonal antibody anti-6His-Tb-cryptate Gold) and D2-acceptor (streptavidin [SA]-D2) of TR-FRET are linked to the VBC complex and to HIF-1α peptide, respectively. The VBC complex binds specifically to the HIF-1α peptide when it is hydroxylated, allowing energy transfer from TR-FRET donor to acceptor (FIG. 1). […] The plates were incubated for 30 minutes at room temperature without rotation. […] TR-FRET assays were performed in triplicate at each concentration of compound and the assays were repeated independently three times.

full-length human PHD1 = full-length human PHD1 (Homo sapiens (Human), UniProt Q96KS0); experiment: TR-FRET assay for PHD enzymes, PHD1; assay type: biochemical; conditions: TR-FRET, 15 nM PHD1, 1 μM 2-OG
Chain of full-length human PHD1 (Q96KS0 whole entry): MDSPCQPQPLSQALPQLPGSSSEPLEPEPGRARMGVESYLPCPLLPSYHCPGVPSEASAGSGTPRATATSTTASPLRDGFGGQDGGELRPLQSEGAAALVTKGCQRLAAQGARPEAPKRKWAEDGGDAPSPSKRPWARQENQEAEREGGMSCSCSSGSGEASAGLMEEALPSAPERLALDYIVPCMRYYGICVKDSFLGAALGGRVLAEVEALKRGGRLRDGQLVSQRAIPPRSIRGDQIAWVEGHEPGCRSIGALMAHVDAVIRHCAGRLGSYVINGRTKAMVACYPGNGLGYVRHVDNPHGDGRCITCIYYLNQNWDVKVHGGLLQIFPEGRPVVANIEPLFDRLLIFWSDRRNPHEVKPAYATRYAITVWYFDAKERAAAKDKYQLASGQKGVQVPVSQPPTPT
From the text: PHD1 was expressed in a baculovirus expression system as the full-length protein (NCBI accession number NP_542770.2) with an N-terminal FLAG tag (molecular weight 44.9 kDa).

full-length human PHD3 = full-length human PHD3 (Homo sapiens (Human), UniProt Q9H6Z9); experiment: TR-FRET assay for PHD enzymes, PHD3; assay type: biochemical
Chain of full-length human PHD3 (Q9H6Z9 whole entry): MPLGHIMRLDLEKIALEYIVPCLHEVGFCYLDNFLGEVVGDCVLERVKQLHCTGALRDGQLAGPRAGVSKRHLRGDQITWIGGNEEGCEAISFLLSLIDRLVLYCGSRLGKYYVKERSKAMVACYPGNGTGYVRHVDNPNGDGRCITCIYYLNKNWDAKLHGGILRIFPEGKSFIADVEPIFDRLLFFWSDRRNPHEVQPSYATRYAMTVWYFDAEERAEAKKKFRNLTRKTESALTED
From the text: Recombinant human PHD3 protein (molecular weight 31.1 kDa) was purchased from Active Motif (Carlsbad, CA, USA). It was expressed in E. coli as the full-length protein (NCBI accession number NP_071356.1) with an N-terminal 6-His tag (catalog #81033, Lot #24417001).

[1] = read-out: PHD2 IC50, TR-FRET, 5 nM PHD2, 1 μM 2-OG

Chain of full-length human PHD2 (Q9GZT9 whole entry): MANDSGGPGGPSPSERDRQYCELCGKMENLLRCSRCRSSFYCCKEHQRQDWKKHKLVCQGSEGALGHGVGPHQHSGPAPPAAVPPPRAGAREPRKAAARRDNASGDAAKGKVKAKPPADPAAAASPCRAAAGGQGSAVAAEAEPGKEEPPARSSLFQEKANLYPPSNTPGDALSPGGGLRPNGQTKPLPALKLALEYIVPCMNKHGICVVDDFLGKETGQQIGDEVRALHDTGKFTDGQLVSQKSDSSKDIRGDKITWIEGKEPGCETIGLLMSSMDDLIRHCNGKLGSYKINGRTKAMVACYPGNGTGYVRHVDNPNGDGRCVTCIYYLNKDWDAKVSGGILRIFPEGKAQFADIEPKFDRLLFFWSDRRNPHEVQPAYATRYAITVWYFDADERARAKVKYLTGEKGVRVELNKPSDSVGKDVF

Structure (SMILES)	IC50 (full-length human PHD2; [1]) [nM]	IC50 (full-length human PHD1) [nM]	IC50 (full-length human PHD3; TR-FRET, 35 nM PHD3, 1 μM 2-OG) [nM]	IC50 (full-length human PHD3) [nM]	IC50 (full-length human PHD2) [nM]
COc1cccc(-c2cnc(C(=O)NCC(=O)O)c(O)c2C)c1 [Compound 2, (3-Hydroxy-5-(3-methoxyphenyl)-4-methylpicolinoyl)glycine]	< 100	< 100	< 100	–	–
Cc1c(-c2ccc3cnccc3c2)cnc(C(=O)NCC(=O)O)c1O [Compound 3, (3-Hydroxy-5-(isoquinolin-6-yl)-4-methylpicolinoyl)glycine]	< 100	< 100	< 100	–	–
Cc1ccc2cc(-c3cnc(C(=O)NCC(=O)O)c(O)c3C)ccc2n1 [Compound 5, (3-Hydroxy-4-methyl-5-(2-methylquinolin-6-yl)picolinoyl)glycine]	< 100	< 100	< 100	–	–
Cc1c(-c2cnc(-c3ccccc3)s2)cnc(C(=O)NCC(=O)O)c1O [Compound 7, (3-Hydroxy-4-methyl-5-(2-phenylthiazol-5-yl)picolinoyl)glycine]	< 100	< 100	< 100	–	–
Cc1c(-c2ccc(C(F)(F)F)nc2)cnc(C(=O)NCC(=O)O)c1O [Compound 9, (5-Hydroxy-4-methyl-6′-(trifluoromethyl)-[3,3′-bipyridine]-6-carbonyl)glycine]	< 100	< 100	< 100	–	–
Cc1c(-c2cccnc2)cnc(C(=O)NCC(=O)O)c1O [Compound 10, (5-Hydroxy-4-methyl-[3,3′-bipyridine]-6-carbonyl)glycine]	< 100	< 100	< 100	–	–
Cc1c(-c2cnn(-c3ccccn3)c2)cnc(C(=O)NCC(=O)O)c1O [Compound 18, (3-Hydroxy-4-methyl-5-(1-(pyridin-2-yl)-1H-pyrazol-4-yl)picolinoyl)glycine]	< 100	< 100	< 100	–	–
Cc1c(-c2cnn(-c3ccc(F)cc3)c2)cnc(C(=O)NCC(=O)O)c1O [Compound 19, (5-(1-(4-Fluorophenyl)-1H-pyrazol-4-yl)-3-hydroxy-4-methylpicolinoyl)glycine]	< 100	< 100	< 100	–	–
Cc1c(-c2cnn(C(C)C)c2)cnc(C(=O)NCC(=O)O)c1O [Compound 20, (3-Hydroxy-5-(1-isopropyl-1H-pyrazol-4-yl)-4-methylpicolinoyl)glycine]	< 100	< 100	< 100	–	–
Cc1c(-c2cnn(C3CCOCC3)c2)cnc(C(=O)NCC(=O)O)c1O [Compound 21, (3-Hydroxy-4-methyl-5-(1-(tetrahydro-2H-pyran-4-yl)-1H-pyrazol-4-yl)picolinoyl)glycine]	< 100	< 100	< 100	–	–
Cc1c(-c2cnn(CC(C)C)c2)cnc(C(=O)NCC(=O)O)c1O [Compound 22, (3-Hydroxy-5-(1-isobutyl-1H-pyrazol-4-yl)-4-methylpicolinoyl)glycine]	< 100	< 100	< 100	–	–
Cc1nc(C(=O)NCC(=O)O)c(O)c(C)c1-c1cnn(-c2ccccc2)c1 [Compound 25, (3-Hydroxy-4,6-dimethyl-5-(1-phenyl-1H-pyrazol-4-yl)picolinoyl)glycine]	< 100	< 100	< 100	–	–
Cc1c(-c2cnc(-c3ccccc3)o2)cnc(C(=O)NCC(=O)O)c1O [Compound 26, (3-hydroxy-4-methyl-5-(2-phenyloxazol-5-yl)picolinoyl)glycine]	< 100	< 100	< 100	–	–
Cc1ccc(-c2cnc(C(=O)NCC(=O)O)c(O)c2C)cn1 [Compound 27, (5-hydroxy-4,6′-dimethyl-[3,3′-bipyridine]-6-carbonyl)glycine]	< 100	< 100	–	100 to 1000	–
Cc1c(-c2cnc3ccccc3c2)cnc(C(=O)NCC(=O)O)c1O [Compound 28]	< 100	< 100	< 100	–	–
Cc1c(-c2cccc(Cl)c2)cnc(C(=O)NCC(=O)O)c1O [Compound 32, (5-(3-chlorophenyl)-3-hydroxy-4-methylpicolinoyl)glycine]	< 100	< 100	< 100	–	–
Cc1c(-c2ccc3ccccc3c2)cnc(C(=O)NCC(=O)O)c1O [Compound 33, (3-hydroxy-4-methyl-5-(naphthalen-2-yl)picolinoyl)glycine]	< 100	< 100	< 100	–	–
Cc1c(-c2cc(Cl)cc(Cl)c2)cnc(C(=O)NCC(=O)O)c1O [Compound 36, (5-(3,5-dichlorophenyl)-3-hydroxy-4-methylpicolinoyl)glycine]	< 100	< 100	< 100	–	–
Cc1nc(-c2ccccc2)sc1-c1cnc(C(=O)NCC(=O)O)c(O)c1C [Compound 37, (3-hydroxy-4-methyl-5-(4-methyl-2-phenylthiazol-5-yl)picolinoyl)glycine]	< 100	< 100	< 100	–	–
Cc1nn(-c2ccc(F)cc2)cc1-c1cnc(C(=O)NCC(=O)O)c(O)c1C [Compound 38, (5-(1-(4-fluorophenyl)-3-methyl-1H-pyrazol-4-yl)-3-hydroxy-4-methylpicolinoyl)glycine]	< 100	< 100	< 100	–	–
Cc1nn(-c2cccc(F)c2)cc1-c1cnc(C(=O)NCC(=O)O)c(O)c1C [Compound 39, (5-(1-(3-fluorophenyl)-3-methyl-1H-pyrazol-4-yl)-3-hydroxy-4-methylpicolinoyl)glycine]	< 100	< 100	< 100	–	–
Cc1c(-c2cn(-c3ccc(F)cc3)nn2)cnc(C(=O)NCC(=O)O)c1O [Compound 41, (5-(1-(4-fluorophenyl)-1H-1,2,3-triazol-4-yl)-3-hydroxy-4-methylpicolinoyl)glycine]	< 100	< 100	< 100	–	–
Cc1c(-c2cn(CCc3ccc(Cl)cc3)nn2)cnc(C(=O)NCC(=O)O)c1O [Compound 42, (5-(1-(4-chlorophenethyl)-1H-1,2,3-triazol-4-yl)-3-hydroxy-4-methylpicolinoyl)glycine]	< 100	< 100	< 100	–	–
Cc1c(-c2cn(CCCc3ccc(Cl)cc3)nn2)cnc(C(=O)NCC(=O)O)c1O [Compound 43, (5-(1-(3-(4-chlorophenyl)propyl)-1H-1,2,3-triazol-4-yl)-3-hydroxy-4-methylpicolinoyl)glycine]	< 100	< 100	< 100	–	–
Cc1c(-c2cn(-c3ccccc3)nn2)cnc(C(=O)NCC(=O)O)c1O [Compound 44, (3-hydroxy-4-methyl-5-(1-phenyl-1H-1,2,3-triazol-4-yl)picolinoyl)glycine]	< 100	< 100	< 100	–	–
Cc1c(-c2cnn(-c3ccc(C(F)(F)F)cc3)c2)cnc(C(=O)NCC(=O)O)c1O [Compound 67]	< 100	< 100	–	–	–
O=C(O)CNC(=O)c1ncc(-c2cccc(Cl)c2)c(C2CC2)c1O [Compound 69, (5-(3-Chlorophenyl)-4-cyclopropyl-3-hydroxypicolinoyl)glycine]	–	100 to 1000	–	–	100 to 1000
O=C(O)CNC(=O)c1ncc(-c2cccc(Cl)c2)c(C(F)F)c1O [Compound 70, (5-(3-Chlorophenyl)-4-(difluoromethyl)-3-hydroxypicolinoyl)glycine]	–	100 to 1000	–	–	100 to 1000
